# Where “and” joins values, the source holds several entries; their conditions need not be identical. Identical values can stand only once. Inconclusive results and toxic doses are left out.
# Tested on: BDF1 mice, P388 leukemia ip, median survival T/C
# Assay: NCI In Vivo Anticancer Drug Screen. Data for tumor model P388 Leukemia (intraperitoneal) in B6D2F1 (BDF1) mice
# Settings: endpoint: median survival time, higher = longer survival
# Method in brief: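 Mice carrying the transplantable tumour receive compound or vehicle. Survival is followed in each arm, and the treated measure is divided by the vehicle measure.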
# [1] = dose: 25.0 mg/kg/injection, schedule: Q01DX009 (ip), vehicle: saline with Tween-80
# [2] = dose: 50.0 mg/kg/injection, schedule: Q01DX009 (ip), vehicle: saline with Tween-80
# [3] = dose: 100.0 mg/kg/injection, schedule: Q01DX009 (ip), vehicle: saline with Tween-80
# [4] = dose: 100.0 mg/kg/injection, schedule: Q04DX002 (ip), vehicle: saline with Tween-80
# [5] = dose: 200.0 mg/kg/injection, schedule: Q04DX002 (ip), vehicle: saline with Tween-80
# [6] = dose: 50.0 mg/kg/injection, schedule: Q04DX003 (ip), vehicle: saline with Tween-80
# [7] = dose: 100.0 mg/kg/injection, schedule: Q04DX003 (ip), vehicle: saline with Tween-80
# [8] = dose: 200.0 mg/kg/injection, schedule: Q04DX003 (ip), vehicle: saline with Tween-80
# [9] = dose: 25.0 mg/kg/injection, schedule: Q04DX003 (ip), vehicle: saline with Tween-80
# [10] = dose: 200.0 mg/kg/injection, schedule: Q01DX009 (ip), vehicle: saline with Tween-80
# [11] = dose: 400.0 mg/kg/injection, schedule: Q01DX009 (ip), vehicle: saline with Tween-80
# [12] = dose: 200.0 mg/kg/injection, schedule: Q04DX003 (ip), vehicle: saline sonified
# [13] = dose: 50.0 mg/kg/injection, schedule: Q04DX003 (ip), vehicle: saline
# [14] = dose: 100.0 mg/kg/injection, schedule: Q04DX003 (ip), vehicle: saline
# [15] = dose: 200.0 mg/kg/injection, schedule: Q04DX003 (ip), vehicle: saline
# [16] = dose: 400.0 mg/kg/injection, schedule: Q04DX003 (ip), vehicle: saline
# [17] = dose: 25.0 mg/kg/injection, schedule: Q01DX009 (ip), vehicle: saline
# [18] = dose: 50.0 mg/kg/injection, schedule: Q01DX009 (ip), vehicle: saline
# [19] = dose: 200.0 mg/kg/injection, schedule: Q01DX009 (ip), vehicle: saline
# [20] = dose: 400.0 mg/kg/injection, schedule: Q01DX009 (ip), vehicle: saline
# [21] = dose: 100.0 mg/kg/injection, schedule: Q04DX003 (ip), vehicle: Klucel (hydroxypropylcellulose) (HPC)
# [22] = dose: 200.0 mg/kg/injection, schedule: Q04DX003 (ip), vehicle: Klucel (hydroxypropylcellulose) (HPC)
# [23] = dose: 400.0 mg/kg/injection, schedule: Q04DX003 (ip), vehicle: Klucel (hydroxypropylcellulose) (HPC)
# [24] = dose: 100.0 mg/kg/injection, schedule: Q01DX009 (ip), vehicle: saline
smiles,measurement,setting,value
CN(C)c1ccc([N+](=O)[O-])cn1,T/C,"dose: 12.5 mg/kg/injection, schedule: Q01DX009 (ip), vehicle: saline with Tween-80",95 % of control
same,T/C,[1],102 % of control
same,T/C,[2],98 % of control
same,T/C,[3],98 % of control
CC(/C=C/C=C/c1ccccc1)=N\O,T/C,"dose: 200.0 mg/kg/injection, schedule: Q01DX009 (ip), vehicle: Klucel (hydroxypropylcellulose) (HPC)",90 % of control
same,T/C,"dose: 400.0 mg/kg/injection, schedule: Q01DX009 (ip), vehicle: Klucel (hydroxypropylcellulose) (HPC)",95 % of control
CC1=NC2=NC(CCCC(=O)Nc3ccc(Cl)cc3)=NC3=CC=CC(=N1)N32,T/C,[1],104 % of control
same,T/C,[2],95 % of control
same,T/C,[3],99 % of control
O=C(Nc1ccccc1)c1c(-c2ccccc2)oc2ccccc2c1=O,T/C,"dose: 50.0 mg/kg/injection, schedule: Q04DX002 (ip), vehicle: saline with Tween-80",95 % of control
same,T/C,[4],115 % of control
same,T/C,[5],100 % of control
CCOC(=O)CCC(NC(=O)c1ccc(N(C=O)CCOC=O)cc1)C(=O)OCC (stereo not given),T/C,[6],105 % of control
same,T/C,[7],105 % of control
same,T/C,[8],111 % of control
CC(=O)c1ccccc1OCC(O)CN1CCN(c2ccccc2)CC1 (stereo not given),T/C,[1],100 % of control
same,T/C,[9],113 % of control
same,T/C,[2],100 % of control
same,T/C,[6],104 % of control
same,T/C,[3],96 % of control
same,T/C,[7],109 % of control
CCN(CC)S(=O)(=O)c1ccc(-c2cc(Cl)c3cc(S(=O)(=O)F)ccc3n2)cc1,T/C,[3],110 % of control
same,T/C,[10],90 % of control
same,T/C,[11],100 % of control
COC(C)c1cnccc1C(C)c1cc2ccccc2[nH]1 (stereo not given),T/C,"dose: 100.0 mg/kg/injection, schedule: Q01DX001 (ip), vehicle: saline with Tween-80",105 % of control
same,T/C,"dose: 200.0 mg/kg/injection, schedule: Q01DX001 (ip), vehicle: saline with Tween-80",108 % of control
COC(=O)C12CCc3cc(OC)ccc3C1=CC(=O)C2 (stereo not given),T/C,"dose: 100.0 mg/kg/injection, schedule: Q04DX003 (ip), vehicle: saline sonified",100 % of control
same,T/C,[12],95 % of control
Cc1ncnc2c1CCC2,T/C,[2],97 % of control
same,T/C,[3],111 % of control
same,T/C,[7],109 % of control
same,T/C,[10],87 % of control
same,T/C,[8],95 % of control
O=C(CSc1ccccc1)NCc1cnccn1,T/C,[13],108 % of control
same,T/C,[14],92 % of control
same,T/C,[15],104 % of control
same,T/C,[16],100 % of control
C[n+]1cc2c3ccccc3c(N)cc2c2ccccc21,T/C,"dose: 3.12 mg/kg/injection, schedule: Q01DX009 (ip), vehicle: water",157 % of control
same,T/C,"dose: 6.25 mg/kg/injection, schedule: Q01DX009 (ip), vehicle: water",185 % of control
same,T/C,"dose: 6.25 mg/kg/injection, schedule: Q04DX003 (ip), vehicle: water",102 % of control
same,T/C,"dose: 12.5 mg/kg/injection, schedule: Q04DX003 (ip), vehicle: water",116 % of control
same,T/C,"dose: 25.0 mg/kg/injection, schedule: Q01DX009 (ip), vehicle: water",91 % of control
same,T/C,"dose: 25.0 mg/kg/injection, schedule: Q04DX003 (ip), vehicle: water",98 % of control
same,T/C,"dose: 100.0 mg/kg/injection, schedule: Q04DX003 (ip), vehicle: water",154 % of control
same,T/C,"dose: 150.0 mg/kg/injection, schedule: Q04DX003 (ip), vehicle: water",203 % of control
CC(=O)Nc1ccc(Cl)cc1C(=O)c1ccc[nH]1,T/C,[17],100 % of control
same,T/C,[18],95 % of control
same,T/C,[13],102 % of control
same,T/C,[14],98 % of control
same,T/C,[19],110 % of control
same,T/C,[15],100 % of control
same,T/C,[20],87 % of control
same,T/C,[16],100 % of control
O=C(O)C1C2CC1C(Cl)C2Cl (stereo not given),T/C,[2],106 % of control
same,T/C,[3],106 % of control
same,T/C,[10],106 % of control
COc1ccc(CC(C(=O)O)C(Cc2ccc(OC)c(OC)c2)C(=O)O)cc1OC (stereo not given),T/C,[21],109 % of control
same,T/C,[22],100 % of control
same,T/C,[23],109 % of control
O=C(O)c1ccccc1C(=O)Nc1cc(C(F)(F)F)ccc1Cl,T/C,[7],90 % of control
same,T/C,[8],104 % of control
same,T/C,"dose: 400.0 mg/kg/injection, schedule: Q04DX003 (ip), vehicle: saline with Tween-80",118 % of control
C(/C=N/N(c1ccccc1)c1ccccc1)=N\N(c1ccccc1)c1ccccc1,T/C,[21],100 % of control
same,T/C,[22],104 % of control
same,T/C,[23],104 % of control
COc1cc2c(cc1OC)C(CN)C2 (stereo not given),T/C,[18],98 % of control
same,T/C,[24],96 % of control
same,T/C,[19],98 % of control
Cc1c(N)nc(=S)[nH]c1C(=O)O,T/C,"dose: 50.0 mg/kg/injection, schedule: Q04DX003 (ip), vehicle: Klucel (hydroxypropylcellulose) (HPC)",113 % of control
same,T/C,"dose: 100.0 mg/kg/injection, schedule: Q01DX001 (ip), vehicle: Klucel (hydroxypropylcellulose) (HPC)",109 % of control
same,T/C,[21],100 % of control
same,T/C,"dose: 200.0 mg/kg/injection, schedule: Q01DX001 (ip), vehicle: Klucel (hydroxypropylcellulose) (HPC)",109 % of control
same,T/C,[22],100 % of control
same,T/C,"dose: 400.0 mg/kg/injection, schedule: Q01DX001 (ip), vehicle: Klucel (hydroxypropylcellulose) (HPC)",104 % of control
O=C(O)C1C2C=CC(C3C=CC32)C1C(=O)O (stereo not given),T/C,[17],97 % of control
same,T/C,[18],93 % of control
same,T/C,[24],97 % of control
same,T/C,[19],96 % of control
same,T/C,[20],102 % of control
O=C(CC(NC(=O)OCc1ccccc1)C(=O)OCc1ccccc1)OCc1ccccc1 (stereo not given),T/C,[3],97 % of control
same,T/C,[10],108 % of control
same,T/C,[11],97 % of control
O=C1c2ccccc2C(=O)N1CC(O)COc1ccccc1 (stereo not given),T/C,"dose: 75.0 mg/kg/injection, schedule: Q01DX001 (ip), vehicle: saline sonified",104 % of control
same,T/C,"dose: 150.0 mg/kg/injection, schedule: Q01DX001 (ip), vehicle: saline sonified",122 % of control
same,T/C,"dose: 300.0 mg/kg/injection, schedule: Q01DX001 (ip), vehicle: saline sonified",104 % of control
O=C(O)C1CC/C=C\CCC1 (stereo not given),T/C,"dose: 100.0 mg/kg/injection, schedule: Q04DX003 (sc), vehicle: olive oil, sesame oil, peanut oil",100 % of control
same,T/C,"dose: 200.0 mg/kg/injection, schedule: Q04DX003 (sc), vehicle: olive oil, sesame oil, peanut oil",100 % of control
same,T/C,"dose: 400.0 mg/kg/injection, schedule: Q04DX003 (sc), vehicle: olive oil, sesame oil, peanut oil",91 % of control
CCC1=C(c2cc(Cl)c3ccccc3c2OCC(=O)O)OC(CC)(C(=O)c2cc(Cl)c3ccccc3c2OCC(=O)O)CC1 (stereo not given),T/C,[1],90 % of control
same,T/C,[2],95 % of control
same,T/C,"dose: 50.0 mg/kg/injection, schedule: Q04DX003 (ip), vehicle: saline sonified",100 % of control
same,T/C,[3],115 % of control
same,T/C,[12],90 % of control
CC(C)(C)c1cc2c3c(c1)C(C)(C)OS3(C)OC2(C)C,T/C,"dose: 6.25 mg/kg/injection, schedule: Q04DX003 (ip), vehicle: saline with Tween-80",102 % of control
same,T/C,"dose: 12.5 mg/kg/injection, schedule: Q04DX003 (ip), vehicle: saline with Tween-80",100 % of control
same,T/C,[9],92 % of control
O=C(c1ccccc1)c1ccccc1C(=O)c1ccccc1,T/C,"dose: 25.0 mg/kg/injection, schedule: Q01DX009 (ip), vehicle: Klucel (hydroxypropylcellulose) (HPC)",95 % of control
same,T/C,"dose: 50.0 mg/kg/injection, schedule: Q01DX009 (ip), vehicle: Klucel (hydroxypropylcellulose) (HPC)",100 % of control
same,T/C,"dose: 100.0 mg/kg/injection, schedule: Q01DX009 (ip), vehicle: Klucel (hydroxypropylcellulose) (HPC)",89 % of control and 91 % of control
same,T/C,[21],109 % of control
same,T/C,[22],104 % of control
same,T/C,[23],118 % of control
O=S(=O)(c1ccccc1CO)c1ccccc1CO,T/C,[4],98 % of control
same,T/C,[5],95 % of control
same,T/C,"dose: 400.0 mg/kg/injection, schedule: Q04DX002 (ip), vehicle: saline with Tween-80",100 % of control

# Source: PubChem BioAssay AID328 (DTP/NCI, 2004)
